Measurements published in patent US12605350B2, “Composition for preventing, ameliorating, or treating disease caused by nitration of tyrosine in proteins comprising tyrosine as effective component” (INDUSTRY-ACADEMIC COOPERATION FOUNDATION GYEONGSANG …, priority 2020, dated 2026).
Entries after “also recorded” stand apart in the source; their conditions may differ.

Experiments:
[1] = test system: high-fat diet mouse model of type 2 diabetes; assay: high-fat diet mouse model of type 2 diabetes: bodyweight, food intake amount, blood glucose; type: in vivo; conditions: HFD+L-Tyr (181 mg of L-tyrosine/kg) compared to HFD, measured every week
Procedure: Twenty-seven C57BL/6 male mice (3-week old) were acclimated to the breeding condition for 1 week. […] Blood glucose was measured every week.

[2] = test system: acute renal failure caused by kidney ischemia or reperfusion injury; assay: plasma creatinine (Jaffe method), renal ischemia and reperfusion; type: in vivo, mouse; conditions: L-tyrosine 100 mg/kg oral for 4 days, 24 hours after ischemia and reperfusion
Procedure: C57BL/6 male mouse (23 to 25 g, KOATECH, South Korea) was allowed to have free access to diets and water in sterile breeding room with constant temperature and humidity. The animals were divided into 3 test groups, i.e., 1) Control group (Sham), 2) Renal ischemia having treatment with prepared solvent and induced reperfusion group (CMC+IR), and 3) Renal ischemia having treatment with L-tyrosine and induced reperfusion group (L-Tyr+IR). L-Tyrosine (100 mg/kg) was suspended in 0.5% CMC (carboxymethyl cellulose). The animal was orally administered, once a day for 4 days, with L-tyrosine or the prepared solvent CMC. Thirty minutes after the oral administration on Day 4, renal ischemia was caused. Specifically, the animal abdomen was cut and renal pedicles at both sides were clamped using a Muller atraumatic vascular clamp to cause renal ischemia. […] Blood collected in the above was centrifuged for 15 minutes at 3,000 rpm to separate plasma, and blood creatinine was measured by using Jaffe method. With regard to Jaffe method, based on a difference between the absorbance measured at a wavelength of 510 nm after the reaction of plasma sample with picric acid and the absorbance measured after completing the reaction using 60% acetic acid, the amount of creatinine was calculated and it was expressed in unit of mg/dl.

[3] = test system: animal model of acute hepatic encephalopathy caused by AOM; assay: ammonia in blood, hepatic encephalopathy (hyperammonemia) caused by azoxymethane; type: in vivo, mouse; conditions: L-tyrosine 100 mg/kg oral once a day for 4 days, AOM 100 mg/kg i.p.
Procedure: C57BL/6 male mouse (13-week old, KOATECH, South Korea) was allowed to have free access to diets and water in sterile breeding room with constant temperature and humidity. The animals were divided into 3 test groups, i.e., (1) Control group (Control), (2) Carboxymethyl cellulose+azoxymethane treatment group (CMC+AOM), and (3) L-Tyrosine+AOM treatment group (L-Tyr+AOM). L-Tyrosine (100 mg/kg) was suspended in 0.5% CMC (carboxymethyl cellulose). The animal was orally administered, once a day for 4 days, with L-tyrosine or the prepared solvent CMC. Two hours after the oral administration on Day 4, intraperitoneal injection of AOM (100 mg/kg, […]) was carried out. To prevent dehydration, the animal was intraperitoneally injected with […] of physiological saline, 12 hours after the administration of AOM. Four hours after the injection, the test animal was sacrificed, blood was collected from the heart, and the liver tissues were harvested. Amount of ammonia in blood was measured by using PocketChem BA PA-4140 (Arkray, Japan), which is an analytical device based on single wavelength reflectometry. Specifically, blood was applied in an amount of 20 μl on a test strip followed by reaction for 3 minutes. The strip was then inserted to the measurement device to obtain the absorbance at a wavelength of 635 nm (LED), which was then expressed in unit of μg/dl.

[4] = test system: mouse model of epileptic seizure which has been induced to have seizure by kainic acid; assay: immunohistochemistry of hippocampal area (CA1, CA3): neurons (NeuN) and microglia (Iba1) after kainic acid; type: in vivo; conditions: tyrosine diet
Procedure: Blood perfusion with PBS and PFA was carried out through animal heart, and the brain was removed and post-fixed in PFA for 15 hours or longer. After washing 3 times for 10 minutes with PBS, brain tissue specimen with thickness of 40 μm was obtained using a vibratome.
In IHC buffer solution (PBS containing 0.3% Triton X-100) in which 3% bovine serum albumin is dissolved, the above-obtained brain specimen was blocked for 1 hour at room temperature and then reacted at 4° C. for 15 hours or longer with a primary antibody (anti-NeuN (Millipore, MAB377, 1:500), anti-Ibal (Wako, 019-19741, 1:200)) (IHC buffer solution containing 3% BSA). After washing 3 times, each for 10 minutes, with the IHC buffer solution, it was reacted with a flurolabeled secondary antibody (anti-Mouse IgG Alexa Fluor 488 (Invitrogen, 1:1000), anti-Rabbit IgG AlexaFluor594 (Invitrogen, […])) for 2 hours at room temperature (IHC buffer solution containing 3% BSA). After washing 3 times, each for 10 minutes, with the IHC buffer solution, the specimen was fixed on a silane-coated glass slide. An anti-fade solution containing DAPI was added onto the specimen and then dried after covering with a cover glass. Signal density of an image photographed with a fluorescent microscope was analyzed by using Image J analysis program.

[5] = test system: acute renal failure caused by kidney ischemia or reperfusion injury; assay: ROS/RNS amount in mitochondria, renal ischemia and reperfusion; type: in vivo, mouse; conditions: L-tyrosine 100 mg/kg oral for 4 days, IR
Procedure: (§1) C57BL/6 male mouse (23 to 25 g, KOATECH, South Korea) was allowed to have free access to diets and water in sterile breeding room with constant temperature and humidity. The animals were divided into 3 test groups, i.e., 1) Control group (Sham), 2) Renal ischemia having treatment with prepared solvent and induced reperfusion group (CMC+IR), and 3) Renal ischemia having treatment with L-tyrosine and induced reperfusion group (L-Tyr+IR).
(§2) L-Tyrosine (100 mg/kg) was suspended in 0.5% CMC (carboxymethyl cellulose). The animal was orally administered, once a day for 4 days, with L-tyrosine or the prepared solvent CMC. Thirty minutes after the oral administration on Day 4, renal ischemia was caused. Specifically, the animal abdomen was cut and renal pedicles at both sides were clamped using a Muller atraumatic vascular clamp to cause renal ischemia. After 25 minutes of blood ischemia, the clamp was removed followed by reperfusion. The control group (Sham) received the same operational procedures as above except the ischemia using clamp. Twenty-four hours after the reperfusion, the test animal was sacrificed, blood was collected from the heart, and the tissues were harvested.

MnSOD = assay: activity of MnSOD, renal ischemia and reperfusion; type: in vivo, mouse; conditions: L-tyrosine 100 mg/kg oral for 4 days, IR
Procedure: as §1, §2

| SMILES | blood glucose [1] | blood glucose ([1]; listed as L-Tyr) | creatinine in plasma [2] | blood ammonia [3] | activity of microglia in hippocampal area (CA1, CA3) [4] | number of the neuronal cells in hippocampal area (CA1, CA3) [4] | ROS/RNS amount in mitochondria [5] | activity of MnSOD (MnSOD) |
| --- | --- | --- | --- | --- | --- | --- | --- | --- |
| N[C@@H](Cc1ccc(O)cc1)C(=O)O [L-tyrosine] | statistically significant decrease in blood glucose amount | statistically significant decrease | suppressed | suppressed | – | – | – | – |
| N[C@@H](Cc1ccc(O)cc1)C(=O)O [tyrosine] | – | – | – | – | reduced; also recorded: significant decrease in the activity of microglia | maintained without a loss | suppressed | again recovered |
